According to US20080201790A1, “Method and product for regulating cell responsiveness to external signals” (priority 1993, published 2008):

Tested on: JNK
Experiment: JNK solid state kinase assay (GST-Jun) in L929 cells
Type: cell-based, murine
Experimental: In panel A cells were treated for 10 minutes with the indicated concentration of TNFα. JNK activation was measured using a solid phase kinase assay resulting in phosphorylation of GST-Jun. In […] the time course of MAPK activation is shown. MAPK was isolated from cell lysates on DEAE sephacel columns and MAPK activation was measured by phosphorylation of the EGFR peptide substrate. Panel C depicts the concentration curve of MAPK activation by TNFα. Cells were treated with the indicated concentration of TNFα and MAPK was assayed.
Cell lines and culture. L929 cells (ATCC CCL1 were maintained in Dulbecco's modified Eagle's medium with 5% newborn calf serum and 5% bovine calf serum (BCS) supplemented with 100 ug/ml streptomycin and 100 U/ml penicillin. The cells were grown in 10 cm dishes at 37° C. in 7.5% CO2. Cells were made quiescent where indicated by incubation in Dulbecco's modified Eagle's medium and 0.1% bovine serum albumin for 24 h. Recombinant murine TNFα and recombinant human bFGF (147aa) were from R&D Systems, Minneapolis, Minn. Cells were pretreated where indicated with the MEK-1 inhibitor PD#098059 (Parke-Davis Pharmaceutical Corp. Ann Arbor, Mich.) for 1 h at 37° C. Cells were stimulated by incubation with the indicated cytokine or growth factor for various times at 37° C. Stimulation was stopped by rinsing the plates twice with ice cold phosphate buffered saline (PBS) and lysing the cells in the appropriate lysis buffer. Cells were scraped from the plates and nuclei were pelleted for 10 min at 14,000 RPM in a microcentrifuge. JNK assay. JNK activity was measured using a solid state kinase assay in which glutathione S-transferase-c-Jun (1-79) (GST-JUN) cound to glutathione-Sepharose 4B beads was used to affinity purify JNK and then JNK activity was measured in an in vitro kinase assay using the sepharose bound GST-Jun as a substrate (Hibi, M., et al. (1993) Genes & Development 7:2135-2148). Stimulated or unstimulated cells were lysed in 0.5% Nonidet P-40, 20 mM HEPES pH 7.2, 100 mM NaCl, 2 mM dithiothreitol, 1 mM EDTA, 1.0 mM phenylmethylsulfonylfluoride, 1 μg/ml aprotinin and the nuclei pelleted. Lysates were normalized for protein content. JNK was affinity purified from 50-100 μg of cell lysate by the addition of 10 ul of GST-Jun sepharose slurry (2 μg GST-Jun). Binding to GST-Jun efficiently isolates the two major forms of JNK (p45 and p55) and under the conditions used JNK isolation was linear for 10-250 μg of cell lysate. The lysates were rotated at 4° C. for 1-3 h. Beads were washed twice in lysis buffer and then twice in PAN (10 mM PIPES, pH 7.0, 100 mM NaCl, 21 μg/ml aprotinin). Kinase reactions were carried out at 30° C. for 15 min in 20 mM Hepes pH 7.2, 20 mM β-glycerophosphate, 10 mM p-nitrophenyl phosphate, 10 mM MgCl2, 1 mM dithiothreitol, 50 μm sodium vanadate, 10 μCi γ^32P-ATP 4300 Ci/mmole. The kinase reaction was linear from 0-30 min. MAPK Assay MAPK activity was measured exactly as described previously (Gardner, A. M., et al. (1994) Meth. Enzymol. 238:258-270) with the exception that MonoQ FPLC fractionation was replaced by step elution from a DEAE-Sephacel column using 0.5 M NaCl in loading buffer. The eluate was assayed in triplicate using the epidermal growth factor receptor 662-681 peptide (EGFR662-681) as a selective substrate for MAPK activity (Heasley, L. E., et al. (1994) American Journal of Physiology (Renal Fluid Electrolyte Physiol. 36) 267:F366-F373). […] Cells were lysed by scraping in ice cold RIPA buffer (50 mM Tris-HCl, pH 7.2, 150 mM NaCl, 0.1% SDS, 0.5% sodium deoxycholate, 1.0% Triton X-100, 10 mM sodium pyrophosphate, 25 mM β-glycerophosphate, 2 mM sodium vanadate, 2.1 μg/ml aprotinin) and the nuclei were pelletted. […]

Substance	JNK activation (0.1 ng/ml TNFα)	JNK activity relative to basal (1-2 hr post-stimulation)	concentration giving maximal JNK activation (L929 cells) [ng/mL]	time of peak JNK activity (L929 cells) [min]	effect on JNK activity (2.5 ng/ml bFGF)	effect on TNFα stimulation of JNK (L929 cells)
TNFα	greater than four-fold	two-fold above basal	1	10 to 15		
bFGF: recombinant human bFGF (147aa), basic fibroblast growth factor					little or no effect on JNK activity	did not alter the magnitude of JNK activation in response to TNFα
